Measurements taken from patent US8697403B2, “Process and microorganisms for production of lipids from lignocellulosic wastes or residues” (Neste Oil Oyj, priority 2010, dated 2014).

System: strain G009
Experiment: Lipase inhibition test: prevention of TAG degradation in cultivation of strain G009
Format: cell-based, Streptomyces albus
Conditions: G009, waste medium
Procedure: Also g/l values of TAGs were estimated by image analysis using Image J program. The standard curve was prepared using concentration scale from 1 g/l up to 40 g/l and the titre of lipids in the culture broth was measured against the standard curve. The whole culture broth (solid stage cultivations) or separated mycelia was extracted with an equal volume of chloroform-methanol (Clf-MeOH; 2:1). Tubes were incubated in a shaker at RT for 1 hour. After centrifugation sample was taken from the extract and analysed by TLC and/or by GC. Dry extract weight was determined by drying 1-5 ml of extract at RT for one day in air blow after which mass was determined by weighing. The mass was given as grams per 1 liter of the culture broth. The spores of the strain […] were cultivated in the medium containing the following raw materials in 1 L of tap water, pH 7: Dextrose 75 20 g, Bagasse 20 g, Biowaste from bakery and garden (1:1) 5 or 10 g, Algae 25 to 50 g, MgSO4.7 H2O 1 g, KH2PO4 1 g and CaCO3 3 g. The cultivation conditions were 28° C., 300 rpm for 11 days. After 6 days of cultivations, 0.05 g/l AgNO3 or 0.4% of TritonX100 solution containing 0.05 g/l of CaCO3. The flasks without the said supplements were considered as controls for lipase inhibition treatment study. Cultivation was continued in the same conditions for 5 days more. The samples were taken after 7, 8 and 11 days of cultivations according to the general sampling protocols used in this invention and the results of sampling are shown here. The parallel cultivations were done with two concentrations of both algae debris and biowaste and the upper row of each test condition gave a result with higher concentration of both waste fractions.

[1] = supplement added after 6 days, sample 11 day

Structure (SMILES): O=[N+]([O-])[O-].[Ag+] [AgNO3]
- Weight of Chloroform extract (g/l), 7 day (28° C., 300 rpm, supplement added after 6 days (0.05 g/l AgNO3 or 0.4% TritonX100 solution containing 0.05 g/l CaCO3), sample 7 day): 7.7 g/L
- Quantity of TAGs g/l by Image J, 7 day (supplement added after 6 days, sample 7 day): 4.8 g/L
- Quantity of TAGs g/l by Image J, 8 day (supplement added after 6 days, sample 8 day): 4.8 g/L
- Quantity of TAGs g/l by Image J, 11 day [1]: 4.8 g/L
- Weight of Chloroform extract (g/l), 11 day [1]: 8.5 g/L
